In one experiment the target is Human HDAC8 (Homo sapiens (Human), UniProt Q9BY41). In words: Caliper endpoint assay for HDAC8 enzymatic activity. Format: biochemical. To be noted: in vitro enzymatic.
Another experiment has as its target Human HDAC6 (Homo sapiens (Human), UniProt Q9UBN7). The experiment in a line: HDAC6 enzymatic activity assay (Caliper endpoint or fluorogenic format). Format: biochemical. The following applies: for IC50: in vitro enzymatic; for Selectivity (6 v 8) (fold): ratio of HDAC8 IC50/HDAC6 IC50.

The results in this text go back to US20230322747A1, “OXADIAZOLE HDAC6 INHIBITORS AND USES THEREOF” (Eikonizo Therapeutics, Inc., priority 2022, published 2023).

Chain of Human HDAC6 (Q9UBN7 whole entry): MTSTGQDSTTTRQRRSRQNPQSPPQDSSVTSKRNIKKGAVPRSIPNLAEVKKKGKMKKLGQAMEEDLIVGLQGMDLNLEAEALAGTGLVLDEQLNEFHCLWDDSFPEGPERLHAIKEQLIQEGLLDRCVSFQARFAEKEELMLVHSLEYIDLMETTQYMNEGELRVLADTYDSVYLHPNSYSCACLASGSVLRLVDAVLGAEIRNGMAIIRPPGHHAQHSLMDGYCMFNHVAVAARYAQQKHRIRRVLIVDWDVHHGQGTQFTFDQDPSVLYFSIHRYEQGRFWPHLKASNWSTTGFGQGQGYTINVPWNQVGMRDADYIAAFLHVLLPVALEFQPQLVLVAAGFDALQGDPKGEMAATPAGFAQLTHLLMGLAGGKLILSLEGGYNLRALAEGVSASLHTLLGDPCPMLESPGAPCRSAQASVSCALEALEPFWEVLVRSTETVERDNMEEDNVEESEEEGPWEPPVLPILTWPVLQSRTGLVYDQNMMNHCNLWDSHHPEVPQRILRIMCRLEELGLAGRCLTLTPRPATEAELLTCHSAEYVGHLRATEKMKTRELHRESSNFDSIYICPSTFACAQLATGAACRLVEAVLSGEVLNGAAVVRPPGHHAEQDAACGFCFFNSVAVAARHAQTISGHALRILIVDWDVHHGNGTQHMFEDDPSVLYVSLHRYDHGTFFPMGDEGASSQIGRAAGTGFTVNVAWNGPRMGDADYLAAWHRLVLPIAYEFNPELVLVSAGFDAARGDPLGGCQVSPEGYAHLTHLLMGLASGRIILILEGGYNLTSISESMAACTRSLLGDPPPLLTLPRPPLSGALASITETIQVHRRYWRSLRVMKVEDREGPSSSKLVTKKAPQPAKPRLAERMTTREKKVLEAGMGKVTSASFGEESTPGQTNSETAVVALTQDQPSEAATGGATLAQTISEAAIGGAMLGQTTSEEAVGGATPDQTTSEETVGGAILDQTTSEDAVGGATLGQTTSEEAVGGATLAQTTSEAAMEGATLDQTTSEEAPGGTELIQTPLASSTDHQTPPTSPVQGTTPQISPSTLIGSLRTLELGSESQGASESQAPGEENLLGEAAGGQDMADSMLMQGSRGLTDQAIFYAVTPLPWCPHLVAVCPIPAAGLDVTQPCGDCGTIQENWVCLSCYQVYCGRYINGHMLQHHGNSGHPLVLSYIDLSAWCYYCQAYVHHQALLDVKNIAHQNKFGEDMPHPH
Chain of Human HDAC8 (Q9BY41 whole entry): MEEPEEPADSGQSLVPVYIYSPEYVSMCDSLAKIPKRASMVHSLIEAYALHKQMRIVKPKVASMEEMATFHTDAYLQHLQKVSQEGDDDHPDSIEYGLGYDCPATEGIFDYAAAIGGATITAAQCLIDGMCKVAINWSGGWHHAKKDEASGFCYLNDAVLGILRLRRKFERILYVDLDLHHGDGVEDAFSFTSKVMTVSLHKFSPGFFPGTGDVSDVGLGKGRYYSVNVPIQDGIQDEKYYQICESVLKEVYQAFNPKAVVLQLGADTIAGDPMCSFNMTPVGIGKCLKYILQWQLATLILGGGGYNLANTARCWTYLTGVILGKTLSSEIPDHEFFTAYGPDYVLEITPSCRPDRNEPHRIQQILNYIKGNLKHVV

As to `CCn1cnc2ccc(OCc3ccc(-c4nnc(C(F)F)o4)cn3)cc21` [Compound 202], the IC50 – broadly, the midpoint of a concentration-inhibition curve – on Human HDAC8 was over 100 µM; on Human HDAC6, 0.1 to 1 µM. Moreover, the “Selectivity (6 v 8) (fold)” value on Human HDAC6 was “IV (IV: >100-1000)”.

For `Fc1ccc(OCc2ccc(-c3nnc(C(F)F)o3)cn2)cc1` [Compound 12, 2-(difluoromethyl)-5-(6-((4-fluorophenoxy)methyl)pyridin-3-yl)-1,3,4-oxadiazole], the IC50 is over 100 µM against Human HDAC8 and 0.001 to 0.1 µM on Human HDAC6. In addition, at Human HDAC6, the “Selectivity (6 v 8) (fold)” value is listed as “V (V: >1000)”.

With `Fc1ccc(Cl)cc1OCc1ccc(-c2nnc(C(F)F)o2)cn1` [Compound 2, 2-(6-((5-chloro-2-fluorophenoxy)methyl)pyridin-3-yl)-5-(difluoromethyl)-1,3,4-oxadiazole], the IC50 on Human HDAC8 was over 100 µM. Besides, at Human HDAC6, the 50% inhibitory concentration (IC50) lay within 0.001 to 0.1 µM and the “Selectivity (6 v 8) (fold)” value is “V (V: >1000)”.

As for `FC(F)c1nnc(-c2ccc(COc3cccnc3)nc2)o1` [Compound 17, 2-(difluoromethyl)-5-(6-((pyridin-3-yloxy)methyl)pyridin-3-yl)-1,3,4-oxadiazole], the IC50 against Human HDAC8 was 10 to 100 µM. Besides, at Human HDAC6, the IC50 is 0.001 to 0.1 µM and the “Selectivity (6 v 8) (fold)” value is reported as “V (V: >1000)”.

At Human HDAC8, `FC(F)c1nnc(-c2ccc(COc3cccc(C(F)(F)F)n3)nc2)o1` [Compound 92] registered an IC50 of over 100 µM. Also, at Human HDAC6, the IC50 is 0.001 to 0.1 µM and the “Selectivity (6 v 8) (fold)” value was “V (V: >1000)”.

In turn, `Fc1ccc(Cl)c(OCc2ccc(-c3nnc(C(F)F)o3)cn2)c1` [Compound 7, 2-(6-((2-chloro-5-fluorophenoxy)methyl)pyridin-3-yl)-5-(difluoromethyl)-1,3,4-oxadiazole] came in with an IC50 at Human HDAC8 of over 100 µM. On Human HDAC6, the IC50 lay in the range of 0.001 to 0.1 µM and the “Selectivity (6 v 8) (fold)” value is listed as “V (V: >1000)”.

In the case of `FC(F)c1nnc(-c2ccc(COc3cnccn3)nc2)o1` [Compound 68], the IC50 against Human HDAC8 was over 100 µM; at Human HDAC6, 0.1 to 1 µM. Moreover, the “Selectivity (6 v 8) (fold)” value at Human HDAC6 is “V (V: >1000)”.
